What all share (assay type): functional
Assay [1] deals with MCF7. In words: Anticancer activity against human MCF7 cells assessed as growth at 100 uM after 48 hrs by SRB protein assay relative to control. As to conditions: MCF7, 48 h, read-out: Activity.
Assay [2] relates to NCI-H460. Put plainly: Anticancer activity against human NCL-H460 cells assessed as growth at 100 uM after 48 hrs by SRB protein assay relative to control. The note with it: NCI-H460, 48 h, read-out: Activity.
For assay [3], the system named is SF-268. Put plainly: Anticancer activity against human SF268 cells assessed as growth at 100 uM after 48 hrs by SRB protein assay relative to control. As to conditions: SF-268, 48 h, read-out: Activity. On the technique in general: In SRB staining, fixed cells bind dye roughly in proportion to their protein.

Consider `Clc1ncnc2c1ncn2Cc1ccccc1Cn1cnc2c(Cl)ncnc21`, for which the growth at 100 µM in assay [1] turned out to be 78%; in assay [2] it was 58%; in assay [3], 78%.
Consider `Clc1ncnc2c1ncn2Cc1cccc(Cn2cnc3c(Cl)ncnc32)c1`, for which the growth at 100 µM was found to be 77% in assay [1], 65% in assay [2] and 90% in assay [3].
In the same order, the values of `Nc1ncnc2c1ncn2Cc1cccc(Cn2cnc3c(N)ncnc32)c1` are 109%, 96% and 108%.
Turning to `Clc1ncnc2c1ncn2Cc1ccc(Cn2cnc3c(Cl)ncnc32)cc1`, the growth at 100 µM in assay [1] is 101%; in assay [2], 95%; in assay [3], 86%.
Consider `Nc1ncnc2c1ncn2Cc1ccc(Cn2cnc3c(N)ncnc32)cc1`, for which the growth at 100 µM was 112% in assay [1], 111% in assay [2] and 96% in assay [3].
With `Clc1ncnc2c1ncn2Cc1ccc(-c2ccc(Cn3cnc4c(Cl)ncnc43)cc2)cc1`, the results for the growth at 100 µM in assay [1], in assay [2] and in assay [3] were 67%, 45% and 95%, respectively.
As to `Nc1ncnc2c1ncn2Cc1ccc(-c2ccc(Cn3cnc4c(N)ncnc43)cc2)cc1`, the growth at 100 µM in assay [1] came out at 86%; in assay [2] it was 98%; in assay [3] it was 50%.
Consider `Nc1ncnc2c1ncn2Cc1ccccc1Cn1cnc2c(N)ncnc21`, for which the growth at 100 µM turned out to be 99% in assay [1], 84% in assay [2] and 99% in assay [3].

Source of the values: ChEMBL document CHEMBL1143809, “New bis-N9-(methylphenylmethyl)purine derivatives: synthesis and antitumor activity” (2007).
